Experimental data published in PubChem BioAssay AID330 (DTP/NCI, 2004).
Values joined by “and” are separate entries in the source; they are usually repeats but may differ in a detail not shown here. Identical values can stand only once. Inconclusive results and toxic doses are left out.

Tested on: P388 leukemia ip, CD2F1 mice, survival T/C
Test: NCI In Vivo Anticancer Drug Screen. Data for tumor model P388 Leukemia (intraperitoneal) in CD2F1 (CDF1) mice
Settings: endpoint: median survival time, higher = longer survival
Method in brief: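 Mice carrying the transplanted tumor received test compound or vehicle. Survival was recorded in each group, and the value is the treated-group measurement divided by that of the vehicle-treated control group.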

[1] = dose: 50.0 mg/kg/injection, schedule: Q01DX009 (ip), vehicle: saline with Tween-80
[2] = dose: 100.0 mg/kg/injection, schedule: Q01DX009 (ip), vehicle: saline with Tween-80
[3] = dose: 25.0 mg/kg/injection, schedule: Q01DX005 (ip), vehicle: Klucel (hydroxypropylcellulose) (HPC)
[4] = dose: 50.0 mg/kg/injection, schedule: Q01DX005 (ip), vehicle: Klucel (hydroxypropylcellulose) (HPC)
[5] = dose: 100.0 mg/kg/injection, schedule: Q01DX005 (ip), vehicle: Klucel (hydroxypropylcellulose) (HPC)
[6] = dose: 200.0 mg/kg/injection, schedule: Q01DX005 (ip), vehicle: Klucel (hydroxypropylcellulose) (HPC)
[7] = dose: 60.0 mg/kg/injection, schedule: Q01DX005 (ip), vehicle: saline with Tween-80
[8] = dose: 120.0 mg/kg/injection, schedule: Q01DX005 (ip), vehicle: saline with Tween-80
[9] = dose: 240.0 mg/kg/injection, schedule: Q01DX005 (ip), vehicle: saline with Tween-80
[10] = dose: 60.0 mg/kg/injection, schedule: Q01DX005 (ip), vehicle: Klucel (hydroxypropylcellulose) (HPC)
[11] = dose: 120.0 mg/kg/injection, schedule: Q01DX005 (ip), vehicle: Klucel (hydroxypropylcellulose) (HPC)
[12] = dose: 240.0 mg/kg/injection, schedule: Q01DX005 (ip), vehicle: Klucel (hydroxypropylcellulose) (HPC)

## O=[N+]([O-])c1ccc(S(=O)(=O)/N=C/c2ccccc2)cc1
[1]
  T/C: 96 % of control
[2]
  T/C: 98 % of control
dose: 200.0 mg/kg/injection, schedule: Q01DX009 (ip), vehicle: saline with Tween-80
  T/C: 95 % of control

## O=C(CN1CCOCC1)Nc1nc(-c2ccc(Cl)cc2)cs1
dose: 25.0 mg/kg/injection, schedule: Q01DX005 (ip), vehicle: DMSO
  T/C: 98 % of control
dose: 50.0 mg/kg/injection, schedule: Q01DX005 (ip), vehicle: DMSO
  T/C: 100 % of control
dose: 100.0 mg/kg/injection, schedule: Q01DX005 (ip), vehicle: DMSO
  T/C: 99 % of control
dose: 200.0 mg/kg/injection, schedule: Q01DX005 (ip), vehicle: DMSO
  T/C: 95 % of control
dose: 400.0 mg/kg/injection, schedule: Q01DX005 (ip), vehicle: DMSO
  T/C: 98 % of control

## NC(=O)Cn1ccnc1[N+](=O)[O-]
dose: 12.5 mg/kg/injection, schedule: Q01DX009 (ip), vehicle: water
  T/C: 93 % of control
dose: 25.0 mg/kg/injection, schedule: Q01DX009 (ip), vehicle: water
  T/C: 99 % of control
dose: 50.0 mg/kg/injection, schedule: Q01DX009 (ip), vehicle: water
  T/C: 90 % of control
dose: 100.0 mg/kg/injection, schedule: Q01DX009 (ip), vehicle: water
  T/C: 118 % of control
dose: 200.0 mg/kg/injection, schedule: Q01DX009 (ip), vehicle: water
  T/C: 107 % of control

## Clc1ccc(C2Oc3ccccc3-c3nc4ncccc4cc32)cc1 (stereo unspecified)
[3]
  T/C: 86 % of control
[4]
  T/C: 86 % of control
[5]
  T/C: 88 % of control
[6]
  T/C: 91 % of control

## CC(=O)CC(=O)c1c(-c2ccccc2)[nH]c2ccccc12
dose: 25.0 mg/kg/injection, schedule: Q04DX003 (ip), vehicle: saline + alcohol
  T/C: 100 % of control
dose: 50.0 mg/kg/injection, schedule: Q04DX003 (ip), vehicle: saline + alcohol
  T/C: 102 % of control
dose: 100.0 mg/kg/injection, schedule: Q04DX003 (ip), vehicle: saline + alcohol
  T/C: 107 % of control and 96 % of control

## [Cl][Zr][Cl].[c-]1[c-][c-][c-](Cc2ccccc2)[c-]1.[c-]1[c-][c-][c-](Cc2ccccc2)[c-]1
dose: 3.12 mg/kg/injection, schedule: Q01DX009 (ip), vehicle: saline with Tween-80
  T/C: 104 % of control
dose: 6.25 mg/kg/injection, schedule: Q01DX009 (ip), vehicle: saline with Tween-80
  T/C: 89 % of control
dose: 12.5 mg/kg/injection, schedule: Q01DX009 (ip), vehicle: saline with Tween-80
  T/C: 86 % of control

## c1ccc2c(c1)[nH]c1ccncc12
dose: 25.0 mg/kg/injection, schedule: Q01DX009 (ip), vehicle: saline with Tween-80
  T/C: 95 % of control
[1]
  T/C: 95 % of control

## Cc1ccc(-c2nnc3cc(C)n4nnnc4n23)cc1
dose: 6.25 mg/kg/injection, schedule: Q01DX005 (ip), vehicle: Klucel (hydroxypropylcellulose) (HPC)
  T/C: 101 % of control
dose: 12.5 mg/kg/injection, schedule: Q01DX005 (ip), vehicle: Klucel (hydroxypropylcellulose) (HPC)
  T/C: 108 % of control
[3]
  T/C: 108 % of control
[4]
  T/C: 101 % of control
[5]
  T/C: 105 % of control
[6]
  T/C: 107 % of control

## Cc1ccc2c(c1)C1(C)C=C(CN3CCN(C)CC3)C(=O)CC1O2 (stereo unspecified)
dose: 50.0 mg/kg/injection, schedule: Q01DX005 (ip), vehicle: saline
  T/C: 108 % of control
dose: 100.0 mg/kg/injection, schedule: Q01DX005 (ip), vehicle: saline
  T/C: 103 % of control

## C/C=C1/C[N+]2([O-])CC[C@@]34c5ccc(OC)cc5N(C)[C@H]3C2CC1C4C(=O)OC (stereo partly specified)
dose: 2.5 mg/kg/injection, schedule: Q01DX005 (ip), vehicle: Klucel + Tween-80
  T/C: 96 % of control
dose: 5.0 mg/kg/injection, schedule: Q01DX005 (ip), vehicle: Klucel + Tween-80
  T/C: 97 % of control
dose: 10.0 mg/kg/injection, schedule: Q01DX005 (ip), vehicle: Klucel + Tween-80
  T/C: 98 % of control
dose: 20.0 mg/kg/injection, schedule: Q01DX005 (ip), vehicle: Klucel + Tween-80
  T/C: 98 % of control

## O=C(OCCN1C(=O)C2C3C=CC(C3)C2C1=O)C1C2C=CC(C2)C1C(=O)OCCN1C(=O)C2C3C=CC(C3)C2C1=O (stereo unspecified)
dose: 50.0 mg/kg/injection, schedule: Q01DX005 (ip), vehicle: saline + Tween-80 + alcohol
  T/C: 100 % of control
dose: 100.0 mg/kg/injection, schedule: Q01DX005 (ip), vehicle: saline + Tween-80 + alcohol
  T/C: 105 % of control
dose: 200.0 mg/kg/injection, schedule: Q01DX005 (ip), vehicle: saline + Tween-80 + alcohol
  T/C: 105 % of control

## COc1cc2c(cc1C(C)c1cc(OC)c(OC)c(OC)c1)OCO2 (stereo unspecified)
[4]
  T/C: 99 % of control
[5]
  T/C: 97 % of control
[6]
  T/C: 91 % of control

## CC(C)c1cccc(C(C)C)c1NC(=O)N1CCCCC1
[7]
  T/C: 99 % of control
[8]
  T/C: 93 % of control
[9]
  T/C: 100 % of control

## COc1ccc(C2SCC(=O)N2c2nncs2)c(OC)c1 (stereo unspecified)
[10]
  T/C: 99 % of control
[11]
  T/C: 106 % of control
[12]
  T/C: 110 % of control

## O/N=C/C(=Nc1ccc(-c2ccc(N=C(/C=N/O)NO)cc2)cc1)NO
[10]
  T/C: 103 % of control
[11]
  T/C: 102 % of control
[12]
  T/C: 97 % of control

## C/C(CCl)=N\NC1=NC(C)(CCl)P(=O)(NNc2ncccn2)S1 (stereo unspecified)
dose: 3.75 mg/kg/injection, schedule: Q01DX005 (ip), vehicle: saline
  T/C: 104 % of control
dose: 7.5 mg/kg/injection, schedule: Q01DX005 (ip), vehicle: saline
  T/C: 106 % of control
dose: 15.0 mg/kg/injection, schedule: Q01DX005 (ip), vehicle: saline
  T/C: 100 % of control and 113 % of control
dose: 30.0 mg/kg/injection, schedule: Q01DX005 (ip), vehicle: saline
  T/C: 106 % of control and 113 % of control and 97 % of control
dose: 60.0 mg/kg/injection, schedule: Q01DX005 (ip), vehicle: saline
  T/C: 105 % of control and 106 % of control and 107 % of control
dose: 120.0 mg/kg/injection, schedule: Q01DX005 (ip), vehicle: saline
  T/C: 101 % of control

## COc1ccc(-c2nc(C)[nH]c(=O)c2Cc2c(O)ccc3ccccc23)cc1
dose: 50.0 mg/kg/injection, schedule: Q01DX009 (ip), vehicle: saline
  T/C: 102 % of control
dose: 100.0 mg/kg/injection, schedule: Q01DX009 (ip), vehicle: saline
  T/C: 100 % of control
dose: 200.0 mg/kg/injection, schedule: Q01DX009 (ip), vehicle: saline
  T/C: 99 % of control

## CC(C)(C)c1cc(O)cc(C(=O)O)c1O
[1]
  T/C: 101 % of control
[2]
  T/C: 100 % of control

## COc1ccc(-c2cc3cc(OC)c(OC)cc3c[n+]2C)cc1OC
dose: 25.0 mg/kg/injection, schedule: Q04DX003 (ip), vehicle: saline
  T/C: 96 % of control
dose: 50.0 mg/kg/injection, schedule: Q04DX003 (ip), vehicle: saline
  T/C: 94 % of control
dose: 100.0 mg/kg/injection, schedule: Q04DX003 (ip), vehicle: saline
  T/C: 104 % of control

## Cc1ccc(NCCNCCO)c2c(=O)c3ccc(O)cc3sc12
[1]
  T/C: 174 % of control

## CN[C@H]1CCc2cc(OC)c(OC)c(OC)c2-c2ccc(O)c(=O)cc21
dose: 2.5 mg/kg/injection, schedule: Q01DX009 (ip), vehicle: Klucel (hydroxypropylcellulose) (HPC)
  T/C: 103 % of control
dose: 5.0 mg/kg/injection, schedule: Q01DX009 (ip), vehicle: Klucel (hydroxypropylcellulose) (HPC)
  T/C: 100 % of control
dose: 10.0 mg/kg/injection, schedule: Q01DX009 (ip), vehicle: Klucel (hydroxypropylcellulose) (HPC)
  T/C: 99 % of control
dose: 20.0 mg/kg/injection, schedule: Q01DX009 (ip), vehicle: Klucel (hydroxypropylcellulose) (HPC)
  T/C: 93 % of control
dose: 40.0 mg/kg/injection, schedule: Q01DX009 (ip), vehicle: Klucel (hydroxypropylcellulose) (HPC)
  T/C: 92 % of control
dose: 80.0 mg/kg/injection, schedule: Q01DX009 (ip), vehicle: Klucel (hydroxypropylcellulose) (HPC)
  T/C: 108 % of control

## Cc1c(Cl)cccc1Nc1ncccc1C(=O)O
dose: 50.0 mg/kg/injection, schedule: Q01DX005 (ip), vehicle: saline with Tween-80
  T/C: 95 % of control
dose: 100.0 mg/kg/injection, schedule: Q01DX005 (ip), vehicle: saline with Tween-80
  T/C: 105 % of control

## CCCSC(=O)Nc1cc(OC)ccc1OC
[7]
  T/C: 98 % of control
[8]
  T/C: 98 % of control
[9]
  T/C: 104 % of control

## O=C1OC(C(O)CO)C(=N\Nc2ccc(Cl)cc2)/C1=N/Nc1ccccc1 (stereo unspecified)
dose: 100.0 mg/kg/injection, schedule: Q01DX001 (ip), vehicle: Klucel (hydroxypropylcellulose) (HPC)
  T/C: 103 % of control
dose: 200.0 mg/kg/injection, schedule: Q01DX001 (ip), vehicle: Klucel (hydroxypropylcellulose) (HPC)
  T/C: 103 % of control
dose: 400.0 mg/kg/injection, schedule: Q01DX001 (ip), vehicle: Klucel (hydroxypropylcellulose) (HPC)
  T/C: 110 % of control
